From patent publication US6562810B1, “8-substituted-9H-1,3-dioxolo/4,5-h//2,3/benzodiazepine derivatives, as AMPA/kainate receptor inhibitors” (Egis Gyogyszergyar RT., priority 1997, dated 2003)
pIC50: −log10 of the molar value. “Also recorded” adds a separate entry of the source. Read-outs that look alike come from different tables or passages of the source.

Tests used:
male NMRI mice [1] = assay: Global ischemia induced by magnesium chloride (gasping time); type: in vivo; conditions: for Effect in % (increase in gasping time): dose 30 mg/kg ip., 30 minutes before magnesium chloride iv.; for ID50 ip.: gasping time, calculated by linear regression
Experimental: Global Ischemia Induced by Magnesium Chloride
The experiments were carried out as described by Berga et al. /Berga, P., Beckett, P. R., Roberts, D. J., Llenas, J., Massingham, R.: Synergistic interactions between piracetam and dihydroergocristine in some animal models of cerebral hypoxia and ischemia, Arzneim.-Forsch., 36, 1314-1320 (1986)/. Groups of 10 male NMRI mice weighing 20 to 25 g were treated ip. with the test substance in […]. After 30 minutes, saturated aqueous magnesium chloride solution was applied iv. (5 ml/kg) resulting in an immediate cardiac arrest. The elapsed time between the iv. injection and the last gasping was measured (gasping time). The means of the treated groups were expressed as percent of control. Statistical analysis was done by ANOVA followed by DUNCAN test. The dose resulting in 50% descrease in gasping time (ID50) was calculated by linear regression.

AMPA/kainate receptors [2] = assay: QNTI (inhibition of quisqualate neurotoxicity) test; type: cell-based, rat; conditions: Inhibition of quisqualate neurotoxicity in primer cortical culture
Experimental: QNTI (inhibition of quisqualate neurotoxicity (test)
The method is based on the phenomenon that the neurotixic effect of quisqualate /i.e. (S)-alpha-amino-3,5-dioxo-1,2,4-oxadiazolidine-2-propanoic acid, an AMPA/kainate agonist/ on the primer telencephalic cell culture of the rat could be inhibited by AMPA/kainate antagonists. The test was performed as described in the literature /Kovács, A. D., Egyed, A.: Protection against non-NMDA receptor-mediated excitotoxicity by GYKI 52466 in mature telencephalic cultures of the rat, Neurobiology, 4, 59-72 (1996)/.

AMPA/kainate receptors [3] = assay: PSI (inhibition of population spike) test in CA1 neurones of hippocampus; type: cell-based; conditions: non-cumulative IC50, rat hippocampus
Experimental: PSI (inhibition of population spike) test
The field potentials (population spike) evoked by electric stimulation of the Shaffer collateral comissural pathway were measured in the CAl neurones of rat hippocampus. The population spike can be inhibited by AMPA/kainate antagonists. The non-cumulative IC50 values are shown in Table I. /Tarnawa, I., Molnár, P., Gaál, L., Andrási, F.: Inhibition of hippocampal field potentials by GYKI 52466 in vitro and in vivo, Acta Physiol. Hung., 79(2), 163-9 (1992)/.

Acute toxicity = conditions: both sexes, mouse, in vivo
Experimental: The study was done in NMRI mice of both sexes, weighing 20 to 25 g, with 6 animals in each dose-group. The test compounds were applied at […], and the maximal per os and ip. doses were 500 mg/kg and 300 mg/kg, respectively. The cumulative lethality was recorded on day 7. The animals were kept under standard laboratory conditions.

male NMRI mice [4] = assay: Muscle relaxant effect (inclined screen according to Hoppe); type: in vivo; conditions: ip.; for ED50: Mus musculus, determined at the time of maximal effect; for Muscle relaxant effect duration: time of last reading when the effect was at least 30%
Experimental: The assay was done according to Hoppe in male NMRI mice weighing 20 to 25 g, with 10 animals in each group /Hoppe, J. O., J. Pharmacol. Exp. Ther., 100, 333 (1950)/. Following the ip. treatment of animals, the number of mice showing muscle weakness were recorded at every 10 minutes in the first hour and at half hour intervals afterwards. The animals falling off the 60° inclined screen within 30 seconds were considered positive. ED50 values of the given compounds were determined at each time. The duration of effect was defined as the time of last reading when the effect was at least 30%.

male NMRI mice [5] = assay: Maximal electroshock test (MES); type: in vivo; conditions: Inhibition of maximal electroshock, ip., 30 minutes before shock; for ED50: Mus musculus
Experimental: Maximal electroshock test (MES)
Male NMRI mice weighing 20 to 30 g were used for the method of Swinyard et al. /Swinyard, E. A., Brown, W. C. and Goodman, L.S.: Comparative assays of antiepileptic drugs in mice and rats, J. Pharmacol., 106, 319 (1952)//. The animals—10 in each group—were treated ip. either with various doses of the test substance or with vehicle. After 30 minutes, a 50 Hz, 40 mA electroshock was applied for 0.4 s through corneal electrodes. The number of animals that developed tonic extensor convulsion of the hind-limbs was registered, percent inhibition was calculated, and ED50 values were determined by the method of Litchfield and Wilcoxon /Litchfield, J. T., Wilcoxon, F. A.: A simplified method of evaluating dose-effect experiments, J. Pharmacol. Exp. Ther., 96, 99 (1949)/ and summarized in Table IV.

male DBA/2j strain mice = assay: Audiogenic seizure (AS) test; type: in vivo; conditions: for ED50: Mus musculus, 0.25 h
Experimental: Audiogenic seizure (AS) test
The experiments were carried out by the slightly modified method of De Sarro et al. /De Sarro, G. B., Croucher, M. J. and Meldrum, B. S.: Anticonvulsant action of DS 103-282, Neuropharm., 23, 525 (1984)/. Groups of 8 male DBA/2j strain mice weighing 7 to 14 g were treated ip. with the test substance in 10 ml/kg volume. 15 minutes later, the animals were placed into a covered glass container (30 cm in diameter) and exposed to a 14 kHz 120 dB tone for 60 s at the most. Seizure response was assessed using the following scale: 0=normal behaviour, 1=wild running, 2=clonus, 3=tonic flexor seizure, 4=tonic extensor seizure. The maximum response during the 60 s exposure was recorded for each animal. Lethality was also noted. The ED50 values were determined by the method of Litchfield and Wilcoxon concerning the inhibition of clonic seizures and tonic extensor convulsions.

**Q.** With `N#CC1=NN=C(c2ccc(N)cc2)c2cc3c(cc2C1)OCO3` [Example 47, 5-(4-Aminophenyl)-8-cyano-9H-1,3-dioxolo/4,5-h//2,3/benzodiazepine] as the molecule, how does the “Effect in % (increase in gasping time)” value (male NMRI mice [1]) read?
**A.** The value was 89%.

**Q.** And the ID50 ip. (male NMRI mice [1])?
**A.** The ID50 ip. was 15 mg/kg.

**Q.** With `CC1(C#N)Cc2cc3c(cc2C(c2ccc(N)cc2)=NN1C(=O)CCNCCN1CCOCC1)OCO3` (racemic) [Example 89, (±)-5-(4-Aminophenyl)-8-cyano-7,8-dihydro-8-methyl-7-/3-(2-morpholinoethylamino)-propionyl/-9H-1,3-dioxolo/4,5-h//2,3/-benzodiazepine] as the molecule, how does the pIC50 (AMPA/kainate receptors [2]) read?
**A.** The pIC50 was 5.27.

**Q.** And the pIC50 (AMPA/kainate receptors [3])?
**A.** Its pIC50 is 5.52.

**Q.** And the LD50 at 7 day (Acute toxicity; NMRI, ip, 300 mg/kg)?
**A.** Its LD50 at 7 day is about 300 mg/kg.

**Q.** What about the LD50 at 7 day (Acute toxicity; NMRI, po, 500 mg/kg) of the same molecule?
**A.** Its LD50 at 7 day is over 500 mg/kg.

**Q.** And the ED50 (male NMRI mice [4])?
**A.** The ED50 was 31.3 mg/kg.

**Q.** What about the “Muscle relaxant effect duration” value (male NMRI mice [4]) of the same molecule?
**A.** Its value is 1 h.

**Q.** What about the “MES ED50” value (male NMRI mice [5]) of the same molecule?
**A.** The value was “The compound according to Example 89 was significantly more effective at the inhibition of maximal electroshock and sound induced tonic convulsions than the reference compound “A” as shown in Table TV”.

**Q.** And the ED50 (male NMRI mice [5])?
**A.** Its ED50 is 2.3 mg/kg.

**Q.** And the “AS convulsion tonic ED50” value (male DBA/2j strain mice; Inhibition of sound induced seizure, tonic extensor convulsions, DBA/2j mice, ip., 15 minutes)?
**A.** Its value is “The compound according to Example 89 was significantly more effective at the inhibition of maximal electroshock and sound induced tonic convulsions than the reference compound “A” as shown in Table TV”.

**Q.** What about the ED50 (male DBA/2j strain mice; Inhibition of sound induced seizure, clonic seizures, DBA/2j mice, ip., 15 minutes, read-out: AS convulsion clonic ED50) of the same molecule?
**A.** Its ED50 is 5.4 mg/kg.

**Q.** What about the ED50 (male DBA/2j strain mice; Inhibition of sound induced seizure, tonic extensor convulsions, DBA/2j mice, ip., 15 minutes, read-out: AS convulsion tonic ED50) of the same molecule?
**A.** Its ED50 is 1.2 mg/kg.

**Q.** And the “Effect in % (increase in gasping time)” value (male NMRI mice [1])?
**A.** The value was 117%.

**Q.** What about the ID50 ip. (male NMRI mice [1]) of the same molecule?
**A.** The ID50 ip. was 7 mg/kg.

**Q.** Which “MES ED50” value (male NMRI mice [5]) does the source give for `NC(=O)C1=NN=C(c2ccc(N)cc2)c2cc3c(cc2C1)OCO3` [Example 32, 5-(4-Aminophenyl)-9H-1,3-dioxolo/4,5-h//2,3/benzodiazepine-8-carboxylic amide] here?
**A.** Its value is 2.5 mg/kg.

**Q.** With `Nc1ccc(C2=NN=C(c3nnn[nH]3)Cc3cc4c(cc32)OCO4)cc1` [Example 48, 5-(4-Aminophenyl)-8-(5-tetrazolyl)-9H-1,3-dioxolo/4,5-h//2,3/benzodiazepine] as the molecule, how does the melting point read?
**A.** The melting point was 244 to 246 °C.

**Q.** Which results are given for `CC1(C#N)Cc2cc3c(cc2C(c2ccc([N+](=O)[O-])cc2)=NN1C(=O)CCl)OCO3` (racemic) [Example 73, (±)-8-Cyano-7,8-dihydro-7-chloroacetyl-8-methyl-5-(4-nitrophenyl)-9H-1,3-dioxolo/4,5-h//2,3/benzodiazepine]?
**A.** pIC50 (AMPA/kainate receptors [2]): 5.13; pIC50 (AMPA/kainate receptors [3]): 5.20; LD50 at 7 day (Acute toxicity; NMRI, ip, 300 mg/kg): ~300 mg/kg; LD50 at 7 day (Acute toxicity; NMRI, po, 500 mg/kg): > 500 mg/kg; ED50 (male NMRI mice [4]): 22.6 mg/kg; Muscle relaxant effect duration (male NMRI mice [4]): substantially longer; also recorded: higher than 4 hr

**Q.** For `CC1(C#N)Cc2cc3c(cc2C(c2ccc([N+](=O)[O-])cc2)=NN1)OCO3` (racemic) [Example 58, (±)-8-Cyano-7,8-dihydro-8-methyl-5-(4-nitrophenyl)-9H-1,3-dioxolo/4,5-h//2,3/benzodiazepine], which melting point is on record?
**A.** The melting point was 162 to 164 °C.

**Q.** What does the source list for `CC1=NN=C(c2ccc(N)cc2)c2cc3c(cc2C1)OCO3` [“A”, 8-Methyl-5-(4-aminophenyl)-9H-1,3-dioxolo/4,5-h/-/2,3/benzodiazepine, reference compound]?
**A.** pIC50 (AMPA/kainate receptors [2]): 4.92; pIC50 (AMPA/kainate receptors [3]): 5.04; LD50 at 7 day (Acute toxicity; po, NMRI mice, p.o., cumulative lethality on day 7, maximal dose 500 mg/kg, read-out: Appr. LD50 p.o.): 500 mg/kg; LD50 at 7 day (Acute toxicity; NMRI mice, ip., cumulative lethality on day 7, maximal dose 300 mg/kg, read-out: Appr- LD50 ip.): 392 mg/kg; ED50 (male NMRI mice [4]): 24.5 mg/kg; Muscle relaxant effect duration (male NMRI mice [4]): 1 h; ED50 (male NMRI mice [5]): 6.9 mg/kg; ED50 (male DBA/2j strain mice; ip, read-out: AS convulsion clonic ED50): 4.3 mg/kg; ED50 (male DBA/2j strain mice; ip, read-out: AS convulsion tonic ED50): 3.6 mg/kg; Effect in % (increase in gasping time) (male NMRI mice [1]): 55%; ID50 ip. (male NMRI mice [1]): 30 mg/kg
